This is an account of results in patent US3980794A, “Method for promoting growth of poultry with 3-(5-nitro-2-imidazolyl)pyrazoles” (Eli Lilly and Company, priority 1975, dated 1976).

The subject of one assay is Actinomyces bovis 13684. Put plainly: Susceptibility of anaerobic bacteria, agar dilution. Format: cell-based. The following applies: read-out: 24 Hr. Minimum Inhibitory Concentration.
The subject of assay [1] is Clostridium septicum bovine. The assay is described as above. Format: cell-based. The settings on record: 24 h, read-out: 24 Hr. Minimum Inhibitory Concentration.
Assay [2] relates to Clostridium septicum 1128. Described as above. Format: cell-based. The settings on record: 24 h, read-out: 24 Hr. Minimum Inhibitory Concentration.
The subject of assay [3] is Peptostreptococcus intermedius 1264. Described as above. The following applies: 24 h; Peptostreptococcus intermedius 1264; read-out: 24 Hr. Minimum Inhibitory Concentration. The class given is cell-based.
Assay [4] relates to Veillonella alcalescens 1. The assay is described as above. The class given is cell-based. The following applies: read-out: 24 Hr. Minimum Inhibitory Concentration.
Assay [5] concerns Clostridium perfringens 81. Kind of assay: microbe, parasite or virus in culture. The following applies: Clostridium perfringens, 81, 24 h, read-out: 24 Hr. Minimum Inhibitory Concentration. Format: cell-based.
Assay [6] deals with Bacteroides fragilis sp. fragilis 1877. Kind of assay: Susceptibility of anaerobic bacteria, agar dilution. The class given is cell-based. The settings on record: 24 h, read-out: 24 Hr. Minimum Inhibitory Concentration.
In the next assay the test system is Salmonella typhimurium. Put plainly: Control of infections caused by Salmonella typhimurium in chickens, subcutaneous (Experiment 2). The settings on record: Salmonella enterica, sc, 144 h, 6 days, read-out: Survival Ratio (converted); for responders at 15 mg/kg: 15 mg./kg. subcutaneous; for responders at 30 mg/kg: 30 mg./kg. subcutaneous; for responders at 60 mg/kg: 60 mg./kg. subcutaneous. Format: in vivo. The method, then: The efficacy of the novel compounds in the control of infections caused by Salmonella typhimurium in chickens was evaluated in the following manner.
The test was carried out using day-old chicks weighing approximately 35 g. each. The chicks were divided into groups of 5 chicks per each dosage level. A portion of the chicks received the test compound which was suspended in 0.2 ml. of polyethylene glycol 200 and administered subcutanusly in the neck. […] All the chicks were challenged with a 1:200 dilution of a culture of the organism, 0.1 ml. of the dilution being injected into each chick in the leg intramuscularly. […] The test compounds are identified in the same manner as set forth in Experiment 1.
In the chart, column 1 lists the compounds tested; column 2, the dosage of test compound in mg./kg.; and column 3, the survival ratio.

Assay [7] deals with Bacteroides fragilis sp. vulgatus 1211. Kind of assay: Susceptibility of anaerobic bacteria, agar dilution. The class given is cell-based. The following applies: 24 h, read-out: 24 Hr. Minimum Inhibitory Concentration.
In assay [8] the test system is Bacteroides fragilis sp. vulgatus 1563. Described as above. Format: cell-based. The settings on record: 24 h, read-out: 24 Hr. Minimum Inhibitory Concentration.
In assay [9] the test system is Bacteroides fragilis sp. thetaiotaomicron 1438. The assay is described as above. The settings on record: 24 h, read-out: 24 Hr. Minimum Inhibitory Concentration. The class given is cell-based.
Assay [10] deals with Bacteroides fragilis sp. fragilis 1936B. The description is as above. The class given is cell-based. The following applies: 24 h, read-out: 24 Hr. Minimum Inhibitory Concentration.
The subject of assay [11] is Propionibacterium acnes 79. The description is as above. The class given is cell-based. The settings on record: read-out: 24 Hr. Minimum Inhibitory Concentration.
The test system of assay [12] is Fusobacterium necrophorum 13859. Described as above. The class given is cell-based. The settings on record: read-out: 24 Hr. Minimum Inhibitory Concentration.
For assay [13], the system named is Clostridium innocuum 1373. The assay is described as above. Format: cell-based. The following applies: read-out: 24 Hr. Minimum Inhibitory Concentration.
A further assay relates to Clostridium ramosum 1313. The assay is described as above. Format: cell-based. The following applies: read-out: 24 Hr. Minimum Inhibitory Concentration.
In assay [14] the test system is Fusobacterium symbiosum 1470. The assay is described as above. Format: cell-based. The following applies: read-out: 24 Hr. Minimum Inhibitory Concentration.
Assay [15] concerns Peptococcus anaerobius 1428. Described as above. The class given is cell-based. The settings on record: 24 h, read-out: 24 Hr. Minimum Inhibitory Concentration.
The subject of assay [16] is Eubacterium aerofaciens 1235. Described as above. The class given is cell-based. The following applies: read-out: 24 Hr. Minimum Inhibitory Concentration.
Assay [17] relates to Propionibacterium acnes 44. The description is as above. Format: cell-based. The following applies: Cutibacterium acnes, 24 h; Propionibacterium acnes 44; read-out: 24 Hr. Minimum Inhibitory Concentration.

≈ marks a conversion by molar mass, not a printed value. Read-outs that look alike come from different tables or passages of the source. A value given as a limit tells only on which side of the number the result lay.

For the compound `CC(=O)Nc1c(C#N)c(-c2ncc([N+](=O)[O-])n2C)nn1C` [Compound 8, N-[4-cyano-1-methyl-3-(1-methyl-5-nitro-2-imidazolyl)pyrazol-5-yl]acetamide], the MIC came out at 4 µg/mL (≈ 13.8 µM) in the assay on Actinomyces bovis 13684 (24 h, Actinomyces bovis 13684); 1 µg/mL (≈ 3.46 µM) in [1]; 0.25 µg/mL (≈ 0.864 µM) in assay [2]; 4 µg/mL (≈ 13.8 µM) in assay [3]; 0.03 µg/mL (≈ 0.104 µM) in [4] (Veillonella parvula, 24 h, Veillonella alcalescens 1); 1 µg/mL (≈ 3.46 µM) in assay [5]. Besides, the MIC in [6] (Bacteroides fragilis sp. fragilis 1877) came to 0.25 µg/mL (≈ 0.864 µM); in assay [7] (Bacteroides fragilis sp. vulgatus 1211) it was 0.25 µg/mL (≈ 0.864 µM); in assay [8] (Bacteroides fragilis sp. vulgatus 1563), 0.25 µg/mL (≈ 0.864 µM); in assay [9] (Bacteroides fragilis sp. thetaiotaomicron 1438) it was 0.5 µg/mL (≈ 1.73 µM); in assay [10] (Bacteroides fragilis sp. fragilis 1936B) it was 0.25 µg/mL (≈ 0.864 µM); in [11] (Cutibacterium acnes, 24 h, Propionibacterium acnes 79), 0.03 µg/mL (≈ 0.104 µM). Besides, the MIC is 0.06 µg/mL (≈ 0.207 µM) in assay [12] (24 h, Fusobacterium necrophorum 13859); 1 µg/mL (≈ 3.46 µM) in assay [13] (24 h, Clostridium innocuum 1373); 0.25 µg/mL (≈ 0.864 µM) in the assay on Clostridium ramosum 1313 (Thomasclavelia ramosa, 24 h, Clostridium ramosum 1313); 0.03 µg/mL (≈ 0.104 µM) in [14] (24 h, Fusobacterium symbiosum 1470); 1 µg/mL (≈ 3.46 µM) in [15] (Peptococcus anaerobius 1428); 0.125 µg/mL (≈ 0.432 µM) in assay [16] (Collinsella aerofaciens, 24 h, Eubacterium aerofaciens 1235). In addition, in assay [17], the MIC is over 8 µg/mL. In the assay on Salmonella typhimurium, the responders at 15 mg/kg was 0%. Further, in the assay on Salmonella typhimurium, the responders at 30 mg/kg is 20%. For the same compound, the responders at 60 mg/kg in the assay with Salmonella typhimurium is 60%.

Take `Cn1c([N+](=O)[O-])cnc1-c1nn(CCO)c(N)c1C#N` [Compound 14, 5-Amino-1-(2-hydroxyethyl)-3-(1-methyl-5-nitro-2-imidazolyl)pyrazole-4-carbonitrile]: the MIC in the assay on Actinomyces bovis 13684 (Actinomyces bovis, 13684, 24 h) is under 0.125 µg/mL; in assay [1], under 0.125 µg/mL; in [2], under 0.125 µg/mL; in [3], 1 µg/mL (≈ 3.61 µM); in [4] (Veillonella parvula, 1, 24 h) it was under 0.125 µg/mL; in [5], under 0.125 µg/mL. The MIC in assay [6] (Bacteroides fragilis) was under 0.125 µg/mL; in [7] (Bacteroides fragilis) it was under 0.125 µg/mL; in assay [8] (Bacteroides fragilis) it was under 0.125 µg/mL; in assay [9] (Bacteroides fragilis), under 0.125 µg/mL; in assay [10] (Bacteroides fragilis), under 0.125 µg/mL; in assay [11] (Cutibacterium acnes, 79, 24 h), under 0.125 µg/mL. For the same compound, the MIC in [12] (Fusobacterium necrophorum, 13859, 24 h) was under 0.125 µg/mL; in assay [13] ([Clostridium] innocuum, 1373, 24 h) it was under 0.125 µg/mL; in the assay on Clostridium ramosum 1313 (Thomasclavelia ramosa, 1313, 24 h), under 0.125 µg/mL; in [14] (Fusobacterium, 1470, 24 h) it was under 0.125 µg/mL; in [15], under 0.125 µg/mL; in assay [16] (Collinsella aerofaciens, 1235, 24 h), under 0.125 µg/mL. Further, in assay [17], the MIC is over 32 µg/mL. Further, the responders at 7.5 mg/kg in the assay with Salmonella typhimurium (7.5 mg./kg. subcutaneous) is 20%. Besides, the responders at 15 mg/kg in the assay on Salmonella typhimurium is 6.67%. Further, the responders at 30 mg/kg with Salmonella typhimurium is 40%. The responders at 60 mg/kg in the assay with Salmonella typhimurium was 93.3%.
